Where a chain is given by its changes, count along the chain named. “Also recorded” adds a separate entry of the source.
How the values were obtained:
[1] = molecular target: T1, AA-as7 kinase (Aurora A LI85V, L201G) (Mus musculus, UniProt P97477, L185V/L201G); assay: In vitro kinase assay with AA-as7 and TPX2; type: biochemical, murine
T1 construct: the Aurora A mutant is the double mutant Aurora A (AA-as7); 6-His; made in house; host or cells: Sf9 insect cells (baculovirus, Bac-to-Bac)
T1 sequence (P97477 1-395 L185V/L201G): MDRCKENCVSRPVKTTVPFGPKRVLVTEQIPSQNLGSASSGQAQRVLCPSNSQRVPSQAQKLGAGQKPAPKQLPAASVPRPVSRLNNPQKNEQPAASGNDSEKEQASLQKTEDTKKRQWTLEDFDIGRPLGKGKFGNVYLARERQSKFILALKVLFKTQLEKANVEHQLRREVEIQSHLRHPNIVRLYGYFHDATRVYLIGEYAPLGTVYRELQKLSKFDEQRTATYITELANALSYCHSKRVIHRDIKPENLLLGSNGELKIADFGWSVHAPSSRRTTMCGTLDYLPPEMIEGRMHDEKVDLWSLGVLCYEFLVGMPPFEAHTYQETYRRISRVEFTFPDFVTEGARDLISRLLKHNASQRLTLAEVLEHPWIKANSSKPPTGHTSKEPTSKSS
Method: (§1) For in vitro labeling, Aurora A/TPX2 complex (on beads) was pre-incubated with 10 μM cold ATP for 10 min to activate the kinase. The beads were washed twice with kinase buffer, and then subjected to kinase assay with 2-5 μg of recombinant protein (such as PHLDA) and 1 μCi of [γ-^32P] ATP. Reactions were terminated by adding SDS sample buffer, separated by SDS-PAGE gel, transferred to PVDF membrane and exposed to Biomax MS film. Aurora A kinase assays were conducted using 1 μCi of [γ-^32P] ATP and 3 μg of Aurora A substrate peptide in a final volume of 30 μl at 30° C. as reported before (Sun, et al, (2008a) Mol. Biol. Cell 19, 3052-3069).
(§2) IC50 values were determined by fitting the data to a sigmoidal dose response curve using GraphPad Prism 4.0 software. Km and Vmax values were derived from the assay described above using various concentrations of AA peptide substrate and ATP. Km and Vmax values were determined using GraphPad Prism 4.0 software.

wild-type Aurora A = molecular target: T2, wild-type Aurora A (Mus musculus, UniProt P97477); assay: In vitro kinase assay with wild-type Aurora A and TPX2; type: biochemical, murine
T2 construct: 6-His; made in house; host or cells: Sf9 insect cells (baculovirus, Bac-to-Bac)
T2 sequence (P97477 1-395): T1 sequence (P97477 1-395 L185V/L201G) with V185L, G201L
T2 sequence (Q9ULW0 1-747 partner): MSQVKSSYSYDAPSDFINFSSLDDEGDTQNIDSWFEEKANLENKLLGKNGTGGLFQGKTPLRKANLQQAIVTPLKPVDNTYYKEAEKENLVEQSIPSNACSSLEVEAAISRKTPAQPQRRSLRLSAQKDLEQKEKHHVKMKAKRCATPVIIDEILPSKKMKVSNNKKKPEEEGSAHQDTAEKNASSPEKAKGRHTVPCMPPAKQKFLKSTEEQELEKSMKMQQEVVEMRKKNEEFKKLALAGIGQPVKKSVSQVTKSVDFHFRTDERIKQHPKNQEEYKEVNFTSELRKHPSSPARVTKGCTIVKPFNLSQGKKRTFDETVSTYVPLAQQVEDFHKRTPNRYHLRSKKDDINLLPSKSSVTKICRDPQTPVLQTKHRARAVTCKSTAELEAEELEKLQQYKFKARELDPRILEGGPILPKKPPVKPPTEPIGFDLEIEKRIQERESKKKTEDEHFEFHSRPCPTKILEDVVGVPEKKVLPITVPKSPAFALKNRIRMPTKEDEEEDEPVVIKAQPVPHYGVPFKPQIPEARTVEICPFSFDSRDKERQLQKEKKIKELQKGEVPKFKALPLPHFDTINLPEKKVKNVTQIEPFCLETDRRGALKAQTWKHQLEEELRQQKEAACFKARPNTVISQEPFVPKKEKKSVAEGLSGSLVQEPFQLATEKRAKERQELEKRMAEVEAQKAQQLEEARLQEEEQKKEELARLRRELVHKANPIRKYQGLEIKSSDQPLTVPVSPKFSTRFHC
Method: as §1, §2

AA-as7-NIH3T3 cells = assay: Soft agar colony formation, AA-as7-NIH3T3 cells; type: cell-based; conditions: 0.5 μM
Method: (§3) Briefly equal volumes of nobel agar (1%, DNA grade) and 2×RPMI 1640 (with 20% FBS) were mixed at 40° C. to make 0.5% agar in six-well tissue culture plates (Corning) as a base agar. Cells (0.1 ml of 2.0×10^5/ml) were suspended in 3 mL of 2×RPMI 1640 (with 20% FBS) and 3 ml of 0.7% agar. 1.5 ml of this suspension was added to each well (as 0.35% top agar) with final concentration of 5,000 cells per well. Top agar was covered with 500 μl of culture media. Plates were incubated at 37° C. for 3 to 4 weeks. Fresh media was added every three days.
(§4) For 1-NM-PPI experiments, fresh media containing 1-NM-PP1 (100 nM) or DMSO were added to the cells every 3 days. Colony formation was observed by light phase-contrast microscope and visually after staining with 0.5 ml of 0.01% crystal violet in PBS for 45 min at room temperature. Experiments were repeated in quadruplicate, two independent times to ensure the reproducibility of the results.

[2] = test system: wild-type Aurora A-expressing NIH3T3 cells; assay: Soft agar colony formation, wild-type Aurora A-NIH3T3 cells; type: cell-based; conditions: 0.5 μM (identical conditions)
Method: as §3, §4

AA-as7-MDA cells = assay: Western blot of protein levels after 1-NM-PP1, AA-as7-MDA cells; type: cell-based; conditions: for Aurora A levels: AA-as7-MDA cells treated with inhibitor
Method: Aurora A can regulate its substrates using either its kinase activity or scaffolding function. Therefore, to dissect the mechanism further, AA-MDA and AA-as7-MDA were treated with 1-NM-PP1 for 12 h and PHLDA1 expression analyzed.
(§5) AA-MDA and AA-as7 MDA cells were treated with either DMSO or 1-NM-PP1 (250 nM) for 12 h, followed by cell lysis. For MLN8237 experiment, MDA cells were treated with 1 μM MLN8237 for 12 h.
(§6) Cells were harvested and lysed in modified RIPA buffer, supplemented with protease inhibitors. Equal amounts of cell extracts were then used to conduct western blot.
Aurora A-mediated phosphorylation of its substrates often promotes their degradation (e.g. p53, PHLDA1) or stabilization (ASAP1). Therefore, we investigated whether Aurora A exerts control over LIMK2 level. Aurora A was transiently depleted in MDA cells using two different shRNAs, causing concomitant decrease in LIMK2 level (FIG. 6A). Wild-type and mutant AA (AA-as7) were stably overexpressed in MDA cells (AA-MDA and AA-as7-MDA cells respectively), leading to considerable increase in LIMK2 levels (FIG. 6B), thereby confirming that Aurora A positively regulates LIMK2 levels. Aurora A can regulate its substrates using either its kinase activity or scaffolding function. Aurora A regulates p53 levels by phosphorylation, but regulates ASAP levels through the scaffolding function. Therefore, to dissect the mechanism by which Aurora A regulates LIMK2, AA-MDA and AA-as7-MDA cells were treated with 1-NM-PP 1 for 12 h and LIMK2 expression analyzed.

[3] = molecular target: Aurora B-as7 (L138V, L154G-AB) kinase (Homo sapiens, UniProt Q96GD4, L138V/L154G); assay: In vitro kinase assay with AB-as7; type: biochemical; conditions: phosphodonor as labelled
Aurora B-as7 (L138V, L154G-AB) kinase, sequence (Q96GD4 whole entry L138V/L154G): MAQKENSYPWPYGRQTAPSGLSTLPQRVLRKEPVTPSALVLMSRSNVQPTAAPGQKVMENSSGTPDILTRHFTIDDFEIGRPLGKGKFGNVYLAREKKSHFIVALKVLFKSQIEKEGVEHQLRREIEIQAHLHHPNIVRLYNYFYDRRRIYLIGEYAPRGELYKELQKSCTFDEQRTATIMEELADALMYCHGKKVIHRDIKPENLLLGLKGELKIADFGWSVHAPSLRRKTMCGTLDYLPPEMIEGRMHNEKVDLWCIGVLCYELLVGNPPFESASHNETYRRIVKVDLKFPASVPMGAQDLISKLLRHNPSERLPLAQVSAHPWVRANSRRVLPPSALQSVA

wild-type Aurora B = wild-type Aurora B (Homo sapiens, UniProt Q96GD4); assay: In vitro kinase assay with wild-type Aurora B; type: biochemical
wild-type Aurora B, sequence (Q96GD4 whole entry): as the sequence (Q96GD4 whole entry L138V/L154G) above, with V138L, G154L counted along it

MDA cells = assay: Western blot of LIMK2 and Aurora A levels after MLN8237, MDA cells; type: cell-based
Method: FIG. 11A-11F Aurora A and LIMK2 positive feedback loop is a common feature in several cancers. […] PC3 cells were transfected with scrambled shRNA (lane 1) or Aurora A-shRNA2 (lane 2) and Aurora A and LIMK2 levels analyzed after 30 h. […] FIG. 11C is a western blot showing that Aurora A ablation in HCT116 and PaCa2 cells depletes LIMK2. HCT116 and PaCa2 cells were transfected with scrambled shRNA (lanes 1 and 3) or Aurora A-shRNA2 (lanes 2 and 4) and Aurora A and LIMK2 levels analyzed. […] FIG. 11E is a western blot showing that LIMK2 acts as a pharmacodynamic biomarker for Aurora A kinase activity. Aurora A was inhibited using 0.5 μM MLN8237 in MDA cells and Aurora A, LIMK2 and actin levels analyzed. […] MDA cells were incubated with MLN8237 (0.5 μM and 1 μM) or the vehicle (DMSO). After 48 h, cells were analyzed using MTT assay. p*<0.05, when compared to the control.
as §5, §6
Over a dozen Aurora A targeted drugs are in clinical trials. […] Aurora A was inhibited using MLN8237 and LIMK2 levels analyzed.

[4] = test system: HA-tagged LIMK2 in MDA cells; assay: Gel shift / Western blot of HA-tagged LIMK2 and mutants in MDA cells after MLN8237; type: cell-based; conditions: additional 12 h
Method: FIGS. 8A-8D. Aurora A phosphorylates LIMK2 at 5283, T494 and T505 which increases its protein stability. […] 6-His-tagged wild type, (S283A) LIMK2, (T494A) LIMK2 and (T505A) LIMK2 mutants were phosphorylated using Aurora A/TPX2 and [^32P] ATP for 15 min and the products were separate by electrophoresis. […] Nucleic acids sequence encoding HA-tagged (S283A) LIMK2, (T494A) LIMK2, and (T505A) LIMK2 were transfected in MDA cells. After 30 h, cells were incubated with 0.5 μM MLN8237 for additional 16 h. Gel shift assay was performed using 10% SDS PAGE. Protein levels were analyzed using HA and actin antibodies. FIG. 8C is a western blot showing Aurora A promotes LIMK2 stability by phosphorylating S283, T494 and T505. Nucleic acids sequences encoding HA-tagged wt LIMK2, (S283A, T494A) LIMK2 (2A) and (S283A, T494A, T505A) LIMK2 (3A) were transfected in MDA cells. After 30 h, protein levels were analyzed using Aurora A, HA and actin antibodies. […] Wild type, double (2A) and triple (3A) mutants of LIMK2 were transfected in MDA cells along with 6-His Ubiquitin and LIMK2 ubiquitination analyzed.
Aurora A inhibits LIMK2 degradation by directly phosphorylating it at Ser283, Thr494 and Thr505: Since Aurora A regulates LIMK2 by phosphorylation (FIG. 6A), we set to identify Aurora A-mediated phosphorylation sites on LIMK2. Aurora A preferentially phosphorylates R/K/N-R-X-S/T-B, where B denotes any hydrophobic residue except Pro (Ferrari et al. (2005) Biochem. J. 390, 293-302). […] S283A, T494A and T505A LIMK2 alleles were generated and their phosphorylation analyzed in vitro. Aurora A phosphorylates LIMK2 at all these sites (FIG. 8A). […]
To confirm these findings, HA-tagged LIMK2 double mutant (S283A, T494A) and HAtagged LIMK2 triple mutant (S283A, T494A, T505A) were generated and transfected in MDA cells. […] After 24 h, Aurora A was inhibited using MLN8237 for an additional 12 h, and LIMK2 levels analyzed using HA antibody.

[5] = AA-as7, phosphodonor as labelled

SMILES: CC(C)(C)n1nc(Cc2cccc3ccccc23)c2c(N)ncnc21 [1-NM-PP1]
- IC50 ([1]; AA-as7 kinase): 1.7 nM
- inhibition of wild-type Aurora A (wild-type Aurora A; even at higher concentrations): does not inhibit
- colony formation in soft agar (AA-as7-NIH3T3 cells): completely inhibited colony formation
- colony formation in soft agar [2]: robust colony formation
- LIMK2 level (AA-as7-MDA cells; 250 nM, 12 h, AA-as7-MDA cells): significant decrease; also recorded: reduces LIMK2 levels
- PHLDA1 level (AA-as7-MDA cells; 12 h, AA-as7-MDA cells): increased
- Aurora A levels (AA-as7-MDA cells): reduces Aurora A levels significantly
- Aurora A levels (AA-as7-MDA cells; listed as 1-NM-PP 1): decreased Aurora A levels; also recorded: lower Aurora A levels

SMILES: Nc1ncnc2c1ncn2[C@@H]1O[C@H](COP(=O)(O)OP(=O)(O)OP(=O)(O)O)[C@@H](O)[C@H]1O [ATP]
- Kcat [1, 5]: 3250 min⁻¹
- Km [1, 5]: 17.7 µM
- Vmax [1, 5]: 7.31 × 10^5
- Kcat (wild-type Aurora A; wild-type Aurora A): 1880 min⁻¹
- Km (wild-type Aurora A; wild-type Aurora A): 16.2 µM
- Vmax (wild-type Aurora A; wild-type Aurora A): 4.24 × 10^5
- Kcat [3]: 165 min⁻¹
- Km [3]: 30.4 µM
- Vmax [3]: 3.30 × 10^4
- Kcat (wild-type Aurora B): 256 min⁻¹
- Km (wild-type Aurora B): 23 µM
- Vmax (wild-type Aurora B): 5.12 × 10^4

SMILES: COc1cc(Nc2ncc3c(n2)-c2ccc(Cl)cc2C(c2c(F)cccc2OC)=NC3)ccc1C(=O)O [MLN8237]
- Aurora A levels (MDA cells): reduced
- LIMK2 levels (MDA cells): depleted LIMK2 levels; also recorded: reduced
- phospho-levels and protein levels of wt LIMK2 and (S283A, T494A) LIMK2 [4]: decreased
- phosphorylation level (top band) and overall protein level of LIMK2 single mutants (S283A, T494A, T505A) [4]: decreased
- protein and phospho-levels of LIMK2 triple mutant (S283A, T494A, T505A) [4]: remained unchanged
